For 3 molecules, mutagenic call results are on record in PubChem BioAssay AID1259407 (Chemical Carcinogenesis Research Information System (CCRIS), 2018).

This data set relates to CCRIS mutagenicity, Ames/micronucleus/aberration tests. The data set is described as follows: CCRIS mutagenicity studies.

Calls of active or inactive are those of the source. The rule behind the calls is not given here.

As to `Cc1cccn2c1nc1ccc(N)nc12`, the mutagenic call (Test System: AMES SALMONELLA TYPHIMURIUM, Strain/Indicator: TA98, Metabolic Activation: MOUSE, LIVER, MICROSOMES, TCDD, Method: STANDARD PLATE) was “active; positive”; the mutagenic call (Test System: AMES SALMONELLA TYPHIMURIUM, Strain/Indicator: TA98, Metabolic Activation: MOUSE, LIVER, MICROSOMES, Method: STANDARD PLATE) is “active; positive”; the mutagenic call (Test System: AMES SALMONELLA TYPHIMURIUM, Strain/Indicator: TA98, Metabolic Activation: RAT LIVER, CYTOSOL, AROCLOR 1254, Method: STANDARD PLATE) was “inactive; negative”; the mutagenic call (Test System: AMES SALMONELLA TYPHIMURIUM, Strain/Indicator: TA98, Metabolic Activation: RAT LIVER, MICROSOMES, AROCLOR 1254, Method: STANDARD PLATE) is “active; positive”; the mutagenic call (Test System: AMES SALMONELLA TYPHIMURIUM, Strain/Indicator: TA98, Metabolic Activation: RAT, LIVER, MICROSOMES, 1-METHYLCHRYSENE, Method: PREINCUBATION) is “active; positive”; the mutagenic call (Test System: AMES SALMONELLA TYPHIMURIUM, Strain/Indicator: TA98, Metabolic Activation: RAT, LIVER, MICROSOMES, 2-METHYLCHRYSENE, Method: PREINCUBATION) is “active; positive”. Further, the mutagenic call runs as follows: (Test System: AMES SALMONELLA TYPHIMURIUM, Strain/Indicator: TA98, Metabolic Activation: RAT, LIVER, MICROSOMES, 3-METHYLCHRYSENE, Method: PREINCUBATION) “active; positive”; (Test System: AMES SALMONELLA TYPHIMURIUM, Strain/Indicator: TA98, Metabolic Activation: RAT, LIVER, MICROSOMES, 4-METHYLCHRYSENE, Method: PREINCUBATION) “active; positive”; (Test System: AMES SALMONELLA TYPHIMURIUM, Strain/Indicator: TA98, Metabolic Activation: RAT, LIVER, MICROSOMES, 5-METHYLCHRYSENE, Method: PREINCUBATION) “active; positive”; (Test System: AMES SALMONELLA TYPHIMURIUM, Strain/Indicator: TA98, Metabolic Activation: RAT, LIVER, MICROSOMES, 6-AMINOCHRYSENE, Method: PREINCUBATION) “active; positive”; (Test System: AMES SALMONELLA TYPHIMURIUM, Strain/Indicator: TA98, Metabolic Activation: RAT, LIVER, MICROSOMES, 6-METHYLCHRYSENE, Method: PREINCUBATION) “active; positive”; (Test System: AMES SALMONELLA TYPHIMURIUM, Strain/Indicator: TA98, Metabolic Activation: RAT, LIVER, MICROSOMES, BENZO[B]CHRYSENE, Method: PREINCUBATION) “active; positive”. The mutagenic call runs as follows: (Test System: AMES SALMONELLA TYPHIMURIUM, Strain/Indicator: TA98, Metabolic Activation: RAT, LIVER, MICROSOMES, BENZO[C]CHRYSENE, Method: PREINCUBATION) “active; positive”; (Test System: AMES SALMONELLA TYPHIMURIUM, Strain/Indicator: TA98, Metabolic Activation: RAT, LIVER, S-9, AROCLOR 1254, Method: PREINCUBATION) “active; positive”; (Test System: AMES SALMONELLA TYPHIMURIUM, Strain/Indicator: TA100, Metabolic Activation: RAT, LIVER, S-9, AROCLOR 1254, Method: PREINCUBATION) “active; positive”; (Test System: AMES SALMONELLA TYPHIMURIUM, Strain/Indicator: TA1538, Metabolic Activation: RAT, LIVER, MICROSOMES, 2-ACETYLAMINOFLUORENE, Method: STANDARD PLATE) “active; positive”; (Test System: AMES SALMONELLA TYPHIMURIUM, Strain/Indicator: TA1538, Metabolic Activation: RAT, LIVER, MICROSOMES, 4-ACETYLAMINOFLUORENE, Method: STANDARD PLATE) “active; positive”; (Test System: AMES SALMONELLA TYPHIMURIUM, Strain/Indicator: TA1538, Metabolic Activation: RAT, LIVER, MICROSOMES, Method: STANDARD PLATE) “active; positive”. Also, the mutagenic call is, setting by setting: (Test System: AMES SALMONELLA TYPHIMURIUM, Strain/Indicator: YG1012, Metabolic Activation: RAT, LIVER, S-9, PHENOBARBITAL AND 5,6-BENZOFLAVONE, Method: PREINCUBATION) “active; positive”; (Test System: AMES SALMONELLA TYPHIMURIUM, Strain/Indicator: YG1019, Metabolic Activation: RAT LIVER S-9, AROCLOR, Method: PREINCUBATION) “active; positive”; (Test System: AMES SALMONELLA TYPHIMURIUM, Strain/Indicator: YG1019, Metabolic Activation: RAT, LIVER, S-9, PHENOBARBITAL AND 5,6-BENZOFLAVONE, Method: PREINCUBATION) “active; positive”; (Test System: AMES SALMONELLA TYPHIMURIUM, Strain/Indicator: YG1020, Metabolic Activation: RAT, LIVER, S-9, PHENOBARBITAL AND 5,6-BENZOFLAVONE, Method: PREINCUBATION) “active; positive”; (Test System: AMES SALMONELLA TYPHIMURIUM, Strain/Indicator: YG1024, Metabolic Activation: RAT, LIVER, S-9, PHENOBARBITAL AND 5,6-BENZOFLAVONE, Method: PREINCUBATION) “active; positive”; (Test System: AMES SALMONELLA TYPHIMURIUM, Strain/Indicator: YG1025, Metabolic Activation: RAT, LIVER, S-9, PHENOBARBITAL AND 5,6-BENZOFLAVONE, Method: PREINCUBATION) “active; positive”. Moreover, the mutagenic call (Test System: AMES SALMONELLA TYPHIMURIUM, Strain/Indicator: YG1029, Metabolic Activation: RAT, LIVER, S-9, PHENOBARBITAL AND 5,6-BENZOFLAVONE, Method: PREINCUBATION) is “active; positive”; the mutagenic call (Test System: UDS HUMAN HEPATOCYTES, Strain/Indicator: THY INCORP, Metabolic Activation: NONE, Method: AUTORADIOGRAPHY) is “active; positive”; the mutagenic call (Test System: UDS MOUSE HEPATOCYTES, Strain/Indicator: THY INCORP, Metabolic Activation: NONE, Method: AUTORADIOGRAPHY) is “active; positive”; the mutagenic call (Test System: UDS RAT HEPATOCYTES, Strain/Indicator: THY INCORP, Metabolic Activation: NONE, Method: AUTORADIOGRAPHY) was “inactive; negative”.
With `COc1ccc(C(=O)n2ncc(Cl)c(Cl)c2=O)cc1`, the mutagenic call was “inactive; negative” (Test System: AMES SALMONELLA TYPHIMURIUM, Strain/Indicator: TA98, Metabolic Activation: NONE, Method: STANDARD PLATE); “inactive; negative” (Test System: AMES SALMONELLA TYPHIMURIUM, Strain/Indicator: TA98, Metabolic Activation: RAT, LIVER, S-9, AROCLOR 1254, Method: STANDARD PLATE); “inactive; negative” (Test System: AMES SALMONELLA TYPHIMURIUM, Strain/Indicator: TA100, Metabolic Activation: NONE, Method: STANDARD PLATE); “inactive; negative” (Test System: AMES SALMONELLA TYPHIMURIUM, Strain/Indicator: TA100, Metabolic Activation: RAT, LIVER, S-9, AROCLOR 1254, Method: STANDARD PLATE); “inactive; negative” (Test System: AMES SALMONELLA TYPHIMURIUM, Strain/Indicator: TA1535, Metabolic Activation: NONE, Method: STANDARD PLATE); “inactive; negative” (Test System: AMES SALMONELLA TYPHIMURIUM, Strain/Indicator: TA1535, Metabolic Activation: RAT, LIVER, S-9, AROCLOR 1254, Method: STANDARD PLATE). The mutagenic call is “inactive; negative” (Test System: AMES SALMONELLA TYPHIMURIUM, Strain/Indicator: TA1537, Metabolic Activation: NONE, Method: STANDARD PLATE) and “inactive; negative” (Test System: AMES SALMONELLA TYPHIMURIUM, Strain/Indicator: TA1537, Metabolic Activation: RAT, LIVER, S-9, AROCLOR 1254, Method: STANDARD PLATE).
As to `Cc1c2ccccc2c(COS(=O)(=O)O)c2ccccc12`, the mutagenic call (Test System: AMES SALMONELLA TYPHIMURIUM, Strain/Indicator: TA98, Metabolic Activation: NONE, Method: PREINCUBATION) is “active; positive”.
